Source: the supplement of paper PMC11208160

Experiment: recombinant UMI read abundance after kanamycin selection (control-corrected) (log10(CPM+1)); higher = more efficient recombination; extreme values may be limits of the assay; sequences stand for … in AGTGCAGAGAAAATCGGCCAGTTTTCTCTGCCTGCAGTCCGCATGCCGTGGGACCCCTTGGGTTCTAACCTGTTGCCTAGATTTATGCAGCGGACTGCCTTTCTCCCAAAGTGATAAACCGG…AGGTTGGTTTCACT; site = the 11-nt donor
Summary of the method: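 Two replicates each of selected and unselected plating were used in this pooled Escherichia coli screen of donor and donor-binding-loop pairs for the IS621 bridge recombinase. Selection was with IPTG (0.07 mM) and kanamycin. Counts of recombinant UMIs, amplified across the donor–target junction, were converted to CPM, averaged, scaled by control-derived factors and reported as log10(CPM+1).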
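Note: IS621 bridge recombinase in Escherichia coli cells against a fixed T5 target plasmid.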

Sequence	recombinant UMI read abundance (log10)
GGCAATCCATGGACCGGTTTTCCCGGTAATCCGTATTTGAA (site GGGAATCCTTT)	0.0169
GGCAATCCATGGACCGGTTTTCCCGGTAATCCGTATTTGAA (site GGTAATCCTTT)	0.00354
GGCAATCCATGGACCGGTTTTCCCGGTAATCCGTATTTGAA (site GTCAATCCTTT)	0.236
GGCAATCCATGGACCGGTTTTCCCGGTAATCCGTATTTGAA (site TGCAATCCTTT)	0.0119
GGCACTCCATGGACCGGTTTTCCCGGTAATCCGTATTTGAA (site GGCAATCCTTT)	0
GGCACTCCATGGACCGGTTTTCCCGGTAATCCGTATTTGAA (site GGCACTCCTTT)	0.248
GGCACTCCATGGACCGGTTTTCCCGGTAATCCGTATTTGAA (site GGCAGTCCTTT)	0.00862
GGCACTCCATGGACCGGTTTTCCCGGTAATCCGTATTTGAA (site GGCATTCCTTT)	0.00807
GGCAGGCCATGGACCGGTTTTCCCGGTAATCCGTATTTGCT (site GGCAGGCCTAG)	0.861
GGCATGACATGGACCGGTTTTCCCGGTAATCCGTATTTGCC (site GGCATGACTGG)	0
GGCCACACATGGACCGGTTTTCCCGGTAATCCGTATTTGTT (site GGCCACACTAA)	0.485
GGCCACACATGGACCGGTTTTCCCGGTAATCCGTATTTGTT (site GGCCACCCTAA)	0.035
GGCCACACATGGACCGGTTTTCCCGGTAATCCGTATTTGTT (site GGCCACGCTAA)	0.0159
GGCCACACATGGACCGGTTTTCCCGGTAATCCGTATTTGTT (site GGCCACTCTAA)	0.00795
GGCCACCCATGGACCGGTTTTCCCGGTAATCCGTATTTGAT (site GGCCACCCTAA)	0.0182
GGCCACCCATGGACCGGTTTTCCCGGTAATCCGTATTTGAT (site GGCCACCCTAC)	0.00622
GGCCACCCATGGACCGGTTTTCCCGGTAATCCGTATTTGAT (site GGCCACCCTAG)	0
GGCCACCCATGGACCGGTTTTCCCGGTAATCCGTATTTGAT (site GGCCACCCTAT)	0
GGCCAGCCATGGACCGGTTTTCCCGGTAATCCGTATTTGTA (site GGCCAGCCTTA)	0.0264
GGCCGATCATGGACCGGTTTTCCCGGTAATCCGTATTTGCG (site GGCCGATCTCG)	1.88
GGCCGATCATGGACCGGTTTTCCCGGTAATCCGTATTTGTC (site GGCCGATCTGA)	0.695
GGCCGTGCATGGACCGGTTTTCCCGGTAATCCGTATTTGCC (site GGCCGTGCTGG)	1.16
GGCCTCCCATGGACCGGTTTTCCCGGTAATCCGTATTTGTT (site GGCCACCCTAA)	0.0137
GGCCTCCCATGGACCGGTTTTCCCGGTAATCCGTATTTGTT (site GGCCCCCCTAA)	0
GGCCTCCCATGGACCGGTTTTCCCGGTAATCCGTATTTGTT (site GGCCGCCCTAA)	0.0206

Sequence	recombinant UMI read abundance (log10)
GGCCTCCCATGGACCGGTTTTCCCGGTAATCCGTATTTGTT (site GGCCTCCCTAA)	0.00625
GGCGAACCATGGACCGGTTTTCCCGGTAATCCGTATTTGAC (site GGCGAACCTGT)	0
GGCGAACCATGGACCGGTTTTCCCGGTAATCCGTATTTGGG (site GGCGAACCTCC)	0
GGCGACCCATGGACCGGTTTTCCCGGTAATCCGTATTTGTT (site GGCAACCCTAA)	0
GGCGACCCATGGACCGGTTTTCCCGGTAATCCGTATTTGTT (site GGCCACCCTAA)	0.0153
GGCGACCCATGGACCGGTTTTCCCGGTAATCCGTATTTGTT (site GGCGACCCTAA)	0.263
GGCGACCCATGGACCGGTTTTCCCGGTAATCCGTATTTGTT (site GGCTACCCTAA)	0.0186
GGCGAGGCATGGACCGGTTTTCCCGGTAATCCGTATTTGTC (site GGCGAGGCTGA)	2.23
GGCGATACATGGACCGGTTTTCCCGGTAATCCGTATTTGTT (site GGCGATACTAA)	1.81
GGCGCACCATGGACCGGTTTTCCCGGTAATCCGTATTTGCA (site GGAGCACCTTG)	0
GGCGCACCATGGACCGGTTTTCCCGGTAATCCGTATTTGCA (site GGCGCACCTTG)	0
GGCGCACCATGGACCGGTTTTCCCGGTAATCCGTATTTGCA (site GGGGCACCTTG)	0
GGCGCACCATGGACCGGTTTTCCCGGTAATCCGTATTTGCA (site GGTGCACCTTG)	0.00254
GGCGCAGCATGGACCGGTTTTCCCGGTAATCCGTATTTGTT (site GGCGCAGCTAA)	0.794
GGCTAATCATGGACCGGTTTTCCCGGTAATCCGTATTTGAT (site GGCTAATCTAT)	0.935
GGCTACTCATGGACCGGTTTTCCCGGTAATCCGTATTTGCT (site GGCTACTCTAG)	2.43
GGCTCTACATGGACCGGTTTTCCCGGTAATCCGTATTTGGT (site GGCTCTACTAC)	0
GGCTTGGCATGGACCGGTTTTCCCGGTAATCCGTATTTGGT (site GGCTTGGCTAC)	0.216
GGGAATACATGGACCGGTTTTCCCGGTAATCCGTATTTGCA (site AGGAAGACTTG)	0
GGGAATACATGGACCGGTTTTCCCGGTAATCCGTATTTGCA (site GGGAATACTTG)	1.37
GGGAATACATGGACCGGTTTTCCCGGTAATCCGTATTTGTT (site CGGAATCCTAA)	0
GGGAATACATGGACCGGTTTTCCCGGTAATCCGTATTTGTT (site GGGAATACTAA)	1.29
GGGAATCCATGGACCGGTTTTCCCGGTAATCCGTATTTGAA (site GGAAATCCTTT)	0.0039
GGGAATCCATGGACCGGTTTTCCCGGTAATCCGTATTTGAA (site GGCAATCCTTT)	0.00362
GGGAATCCATGGACCGGTTTTCCCGGTAATCCGTATTTGAA (site GGGAATCCTTT)	0.808

Sequence	recombinant UMI read abundance (log10)
GGGAATCCATGGACCGGTTTTCCCGGTAATCCGTATTTGAA (site GGTAATCCTTT)	0.0108
GGGACATCATGGACCGGTTTTCCCGGTAATCCGTATTTGCT (site AGGACATCTAG)	0
GGGACATCATGGACCGGTTTTCCCGGTAATCCGTATTTGCT (site CGGACATCTAG)	0
GGGACATCATGGACCGGTTTTCCCGGTAATCCGTATTTGCT (site GGGACATCTAG)	1.43
GGGACATCATGGACCGGTTTTCCCGGTAATCCGTATTTGCT (site TGGACATCTAG)	0
GGGACTACATGGACCGGTTTTCCCGGTAATCCGTATTTGCA (site GGGACTACTTG)	1.67
GGGACTTCATGGACCGGTTTTCCCGGTAATCCGTATTTGTG (site GGGACTTCTCA)	0.746
GGGATCGCATGGACCGGTTTTCCCGGTAATCCGTATTTGCT (site GGGATCGCTAG)	3.09
GGGATGACATGGACCGGTTTTCCCGGTAATCCGTATTTGAG (site GGGATGACTCT)	1.86
GGGATGCCATGGACCGGTTTTCCCGGTAATCCGTATTTGGC (site GGGATGCCTGC)	0
GGGCAACCATGGACCGGTTTTCCCGGTAATCCGTATTTGCG (site GGGCAACCTCG)	0
GGGCAGACATGGACCGGTTTTCCCGGTAATCCGTATTTGCA (site AGGAAGACTTG)	0.0416
GGGCAGACATGGACCGGTTTTCCCGGTAATCCGTATTTGCA (site GGGCAGACTTG)	2.58
GGGGAACCATGGACCGGTTTTCCCGGTAATCCGTATTTGCA (site GGGGAACCTTG)	0
GGGGAACCATGGACCGGTTTTCCCGGTAATCCGTATTTGCA (site GGGGCACCTTG)	0
GGGGAACCATGGACCGGTTTTCCCGGTAATCCGTATTTGCA (site GGGGGACCTTG)	0
GGGGAACCATGGACCGGTTTTCCCGGTAATCCGTATTTGCA (site GGGGTACCTTG)	0
GGGGAATCATGGACCGGTTTTCCCGGTAATCCGTATTTGGG (site GGGGAATCTCC)	0.39
GGGGCAACATGGACCGGTTTTCCCGGTAATCCGTATTTGTC (site GGGGCAACTGA)	1.94
GGGGTAACATGGACCGGTTTTCCCGGTAATCCGTATTTGGG (site GGGGTAACTCC)	0.597
GGGGTTGCATGGACCGGTTTTCCCGGTAATCCGTATTTGCG (site GGGGTTGCTCG)	1.75
GGGTACACATGGACCGGTTTTCCCGGTAATCCGTATTTGGC (site GGGTACACTGC)	3.08
GGGTCGGCATGGACCGGTTTTCCCGGTAATCCGTATTTGGC (site GGGTCGGCTGC)	2.18
GGGTGTTCATGGACCGGTTTTCCCGGTAATCCGTATTTGTT (site GGGTGTTCTAA)	1.1
GGGTTGACATGGACCGGTTTTCCCGGTAATCCGTATTTGAA (site GGGTTGACTTT)	0.979
